Results published in patent publication US10344060B2 (priority 2013, dated 2019).
Several values for one entry are separate records, joined by “and”; a condition that tells them apart may be missing. Equal values may be shown once. Read-outs that look alike come from different tables or passages of the source.

What was measured:
Experiment in all cases: cell-based
rNav1.7 = rNav1.7 (Rattus norvegicus, UniProt O08562); conditions: for rNav1.7/hNav1.7: ratio of PX tonic IC50, rat Nav1.7 over human Nav1.7
mNav1.7 = mNav1.7 (Mus musculus, UniProt Q62205); conditions: for mNav1.7/hNav1.7: ratio of PX tonic IC50, mouse Nav1.7 over human Nav1.7; for IC50: PatchXpress, tonic block, mouse Nav1.7, read-out: PX mNav1.7 Tonic IC50
hNav1.7 [1] = target: T1, hNav1.7 (Homo sapiens, UniProt Q15858); format: cell-based; conditions: read-out: PX hNav1.7 Tonic IC50
hNav1.7 [2] = target: T1, hNav1.7; conditions: IonWorks Quattro; […]; read-out: IC50 (μM) Nav1.7
hNav1.5 [3] = target: T2, hNav1.5 (Homo sapiens, UniProt Q14524); conditions: IonWorks Quattro; Table 9; read-out: IC50 (μM) Nav1.5
hNav1.4 [4] = target: T3, hNav1.4 (Homo sapiens, UniProt P35499); format: cell-based; conditions: Table 9; for IC50: IonWorks Quattro, read-out: IC50 (μM) Nav1.4; for Nav1.4/Nav1.7: ratio of IonWorks Quattro IC50 values
hNav1.3 = hNav1.3 (Homo sapiens, UniProt Q9NY46); conditions: IonWorks Quattro; Table 9; read-out: IC50 (μM) Nav1.3
hNav1.5 [5] = target: T2, hNav1.5; conditions: for Nav1.5/Nav1.7: Table 13, ratio of PX tonic IC50 values; for IC50: read-out: PX hNav1.5 Tonic IC50
hNav1.4 [6] = target: T3, hNav1.4; format: cell-based; conditions: for Nav1.4/Nav1.7: Table 13, ratio of PX tonic IC50 values; for IC50: read-out: PX hNav1.4 Tonic IC50
[7] = PatchXpress, tonic block, human Nav1.7

rNav1.7, sequence (O08562 whole entry): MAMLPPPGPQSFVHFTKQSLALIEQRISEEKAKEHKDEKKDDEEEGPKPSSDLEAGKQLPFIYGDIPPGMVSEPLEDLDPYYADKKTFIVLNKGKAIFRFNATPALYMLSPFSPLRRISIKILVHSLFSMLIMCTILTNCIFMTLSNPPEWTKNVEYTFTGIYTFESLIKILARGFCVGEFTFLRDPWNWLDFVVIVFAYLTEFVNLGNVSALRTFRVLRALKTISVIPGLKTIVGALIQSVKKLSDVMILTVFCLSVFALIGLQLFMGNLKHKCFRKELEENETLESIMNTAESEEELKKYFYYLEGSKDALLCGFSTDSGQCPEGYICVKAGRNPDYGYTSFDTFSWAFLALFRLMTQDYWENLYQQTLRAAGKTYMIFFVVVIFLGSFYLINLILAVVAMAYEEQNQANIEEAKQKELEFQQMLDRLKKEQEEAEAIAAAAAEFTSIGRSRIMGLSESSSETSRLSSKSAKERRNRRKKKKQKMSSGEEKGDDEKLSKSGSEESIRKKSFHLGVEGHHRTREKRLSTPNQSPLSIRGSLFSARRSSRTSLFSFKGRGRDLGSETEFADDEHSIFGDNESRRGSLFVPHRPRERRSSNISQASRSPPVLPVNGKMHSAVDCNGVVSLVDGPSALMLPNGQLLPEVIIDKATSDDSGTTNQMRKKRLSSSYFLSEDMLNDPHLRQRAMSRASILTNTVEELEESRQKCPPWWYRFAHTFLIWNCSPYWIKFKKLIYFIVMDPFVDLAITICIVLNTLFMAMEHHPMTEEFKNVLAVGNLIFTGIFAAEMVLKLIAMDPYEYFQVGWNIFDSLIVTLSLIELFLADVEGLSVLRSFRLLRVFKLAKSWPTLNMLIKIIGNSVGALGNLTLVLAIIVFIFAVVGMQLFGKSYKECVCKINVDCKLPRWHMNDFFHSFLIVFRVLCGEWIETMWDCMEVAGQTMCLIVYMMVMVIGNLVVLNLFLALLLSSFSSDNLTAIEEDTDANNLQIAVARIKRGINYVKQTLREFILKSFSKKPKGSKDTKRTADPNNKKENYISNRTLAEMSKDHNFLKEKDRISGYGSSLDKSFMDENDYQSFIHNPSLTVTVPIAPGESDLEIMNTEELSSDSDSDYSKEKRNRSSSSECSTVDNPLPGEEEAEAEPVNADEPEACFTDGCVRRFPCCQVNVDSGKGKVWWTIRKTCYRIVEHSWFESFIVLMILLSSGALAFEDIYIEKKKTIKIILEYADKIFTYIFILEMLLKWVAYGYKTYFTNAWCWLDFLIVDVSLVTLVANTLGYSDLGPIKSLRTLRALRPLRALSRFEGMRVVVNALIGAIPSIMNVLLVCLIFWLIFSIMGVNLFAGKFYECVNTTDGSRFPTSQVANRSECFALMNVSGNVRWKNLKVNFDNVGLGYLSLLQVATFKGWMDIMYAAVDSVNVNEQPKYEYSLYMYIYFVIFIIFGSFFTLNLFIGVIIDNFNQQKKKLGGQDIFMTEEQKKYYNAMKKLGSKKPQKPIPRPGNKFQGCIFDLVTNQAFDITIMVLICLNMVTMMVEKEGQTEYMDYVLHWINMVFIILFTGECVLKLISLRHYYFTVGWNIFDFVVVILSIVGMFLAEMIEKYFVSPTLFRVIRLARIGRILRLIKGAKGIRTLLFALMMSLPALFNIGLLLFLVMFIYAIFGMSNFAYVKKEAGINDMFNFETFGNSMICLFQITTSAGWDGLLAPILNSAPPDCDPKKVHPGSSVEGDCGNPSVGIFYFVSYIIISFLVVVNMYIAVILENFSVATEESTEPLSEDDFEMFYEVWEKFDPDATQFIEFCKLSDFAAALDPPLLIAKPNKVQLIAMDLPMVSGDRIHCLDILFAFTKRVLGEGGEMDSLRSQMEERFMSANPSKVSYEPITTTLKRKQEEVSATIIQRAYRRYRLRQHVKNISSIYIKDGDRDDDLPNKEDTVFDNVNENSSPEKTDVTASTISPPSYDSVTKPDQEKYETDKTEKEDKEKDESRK
hNav1.3, sequence (Q9NY46 whole entry): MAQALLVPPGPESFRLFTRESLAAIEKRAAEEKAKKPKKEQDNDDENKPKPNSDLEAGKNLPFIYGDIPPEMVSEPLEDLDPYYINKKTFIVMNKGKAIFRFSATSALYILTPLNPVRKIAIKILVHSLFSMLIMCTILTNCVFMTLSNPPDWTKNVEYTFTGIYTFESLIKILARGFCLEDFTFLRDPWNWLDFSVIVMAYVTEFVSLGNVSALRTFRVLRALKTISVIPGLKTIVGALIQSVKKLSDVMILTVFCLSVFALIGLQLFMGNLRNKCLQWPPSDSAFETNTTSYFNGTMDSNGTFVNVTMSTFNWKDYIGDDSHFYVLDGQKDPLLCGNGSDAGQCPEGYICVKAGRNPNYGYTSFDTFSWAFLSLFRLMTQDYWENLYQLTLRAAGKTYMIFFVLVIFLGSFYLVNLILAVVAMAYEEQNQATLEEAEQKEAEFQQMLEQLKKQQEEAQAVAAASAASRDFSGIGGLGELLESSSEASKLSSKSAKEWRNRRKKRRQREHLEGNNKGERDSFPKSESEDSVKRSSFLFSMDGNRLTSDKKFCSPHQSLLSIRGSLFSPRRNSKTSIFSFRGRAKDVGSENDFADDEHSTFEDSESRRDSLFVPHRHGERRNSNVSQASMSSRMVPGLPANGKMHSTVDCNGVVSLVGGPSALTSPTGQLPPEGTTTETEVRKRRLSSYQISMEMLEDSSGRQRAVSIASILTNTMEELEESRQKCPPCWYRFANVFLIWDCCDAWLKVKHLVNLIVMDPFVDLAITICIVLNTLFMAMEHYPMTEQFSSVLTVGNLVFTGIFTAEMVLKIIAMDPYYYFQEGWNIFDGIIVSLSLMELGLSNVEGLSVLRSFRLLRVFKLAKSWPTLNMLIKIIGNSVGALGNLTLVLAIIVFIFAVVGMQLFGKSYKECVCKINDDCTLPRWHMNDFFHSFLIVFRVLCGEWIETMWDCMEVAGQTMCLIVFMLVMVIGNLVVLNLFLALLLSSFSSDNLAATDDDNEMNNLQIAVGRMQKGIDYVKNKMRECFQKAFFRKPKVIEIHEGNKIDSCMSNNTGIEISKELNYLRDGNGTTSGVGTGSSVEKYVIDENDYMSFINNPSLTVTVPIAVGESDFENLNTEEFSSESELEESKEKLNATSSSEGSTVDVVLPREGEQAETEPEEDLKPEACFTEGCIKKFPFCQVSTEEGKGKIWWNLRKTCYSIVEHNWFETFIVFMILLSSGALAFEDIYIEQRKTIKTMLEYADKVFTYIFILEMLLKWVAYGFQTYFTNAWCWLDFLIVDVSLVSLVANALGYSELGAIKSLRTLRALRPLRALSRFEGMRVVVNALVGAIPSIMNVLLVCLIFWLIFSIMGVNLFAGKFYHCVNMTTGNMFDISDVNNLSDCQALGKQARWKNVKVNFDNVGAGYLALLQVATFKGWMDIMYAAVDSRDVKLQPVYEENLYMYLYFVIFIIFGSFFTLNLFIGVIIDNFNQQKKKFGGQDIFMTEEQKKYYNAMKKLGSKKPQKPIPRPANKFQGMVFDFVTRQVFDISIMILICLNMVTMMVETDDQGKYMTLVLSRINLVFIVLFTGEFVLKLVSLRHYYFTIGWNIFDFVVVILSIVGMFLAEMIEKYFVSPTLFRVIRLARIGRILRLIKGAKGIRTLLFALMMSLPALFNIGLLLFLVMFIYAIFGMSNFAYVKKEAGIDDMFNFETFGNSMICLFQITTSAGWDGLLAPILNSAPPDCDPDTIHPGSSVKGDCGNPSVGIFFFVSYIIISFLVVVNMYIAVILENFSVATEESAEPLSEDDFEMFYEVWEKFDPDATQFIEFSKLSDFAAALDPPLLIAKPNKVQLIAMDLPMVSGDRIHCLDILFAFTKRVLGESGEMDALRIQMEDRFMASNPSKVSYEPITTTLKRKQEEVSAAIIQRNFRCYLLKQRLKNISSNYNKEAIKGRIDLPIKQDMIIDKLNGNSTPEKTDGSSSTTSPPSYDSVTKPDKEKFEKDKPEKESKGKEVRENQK

CCCC[C@@H]1NC(=O)[C@H](Cc2c[nH]c3ccccc23)NC(=O)[C@H](CCCCN)NC(=O)[C@H](CCC(N)=O)NC(=O)[C@@H](NC(=O)[C@H](Cc2ccc(O)cc2)NC(=O)[C@@H](N)CC#N)CSSC[C@@H]2NC(=O)[C@@H]3CSSC[C@@H](C(=O)N[C@@H](CCCNC(=N)N)C(=O)N[C@@H](CCCCN)C(=O)N[C@@H](CCC(=O)O)C(=O)N[C@H](C(N)=O)[C@@H](C)CC)NC(=O)[C@H](Cc4c[nH]c5ccccc45)NC(=O)[C@H](CC(C)C)NC(=O)[C@H](CCCCN)NC(=O)[C@H](CSSC[C@H](NC(=O)[C@H]([C@@H](C)O)NC(=O)[C@H](Cc4c[nH]c5ccccc45)NC1=O)C(=O)N[C@@H](CC(=O)O)C(=O)N[C@@H](CO)C(=O)N[C@@H](CCCCN)C(=O)N[C@@H](CCCNC(=N)N)C(=O)N[C@@H](C)C(=O)N3)NC(=O)[C@H](CCCNC(=N)N)NC(=O)[C@H](CC(C)C)NC(=O)CNC(=O)[C@H](Cc1cn(CCCOCCOCCOCCOCCOCCOCCOCCOCCOCCOCCN)nn1)NC2=O
rNav1.7/hNav1.7 (rNav1.7): 0.46 | mNav1.7/hNav1.7 (mNav1.7): 2.23

CCCC[C@@H]1NC(=O)[C@H](Cc2c[nH]c3ccccc23)NC(=O)[C@H](CCCCN)NC(=O)[C@H](CCC(N)=O)NC(=O)[C@@H](NC(=O)[C@H](Cc2ccc(O)cc2)NC(=O)[C@@H](N)Cc2cn(CCOCCOCCOCCOCCOCCOCCOCCOCCOCCOCCN)nn2)CSSC[C@@H]2NC(=O)[C@@H]3CSSC[C@@H](C(=O)N[C@@H](CCCNC(=N)N)C(=O)N[C@@H](CCCCN)C(=O)N[C@H](C(=O)N[C@H](C(N)=O)[C@@H](C)CC)[C@@H](C)CC)NC(=O)[C@H](Cc4c[nH]c5ccccc45)NC(=O)[C@H](CC(C)C)NC(=O)[C@H](CCCCN)NC(=O)[C@H](CSSC[C@H](NC(=O)[C@H]([C@@H](C)O)NC(=O)[C@H](Cc4c[nH]c5ccccc45)NC1=O)C(=O)N[C@@H](CC(=O)O)C(=O)N[C@@H](CO)C(=O)N[C@@H](CCCCN)C(=O)N[C@@H](CCCNC(=N)N)C(=O)N[C@@H](C)C(=O)N3)NC(=O)[C@H](CCCNC(=N)N)NC(=O)[C@H](CC(C)C)NC(=O)CNC(=O)[C@H](CCC(=O)O)NC2=O [Atz(NPEG9)-[Nle6]JzTx-V(1-29)]
rNav1.7/hNav1.7 (rNav1.7): 0.22 | mNav1.7/hNav1.7 (mNav1.7): 1.65

C#CC[C@@H]1NC(=O)[C@H](CC(=O)O)NC(=O)[C@@H]2CSSC[C@@H]3NC(=O)[C@H](CCCNC(=N)N)NC(=O)[C@H](CC(C)C)NC(=O)CNC(=O)[C@H](CCC(=O)O)NC(=O)[C@H](CSSC[C@H](NC(=O)[C@H](Cc4ccc(O)cc4)NC(=O)[C@@H](N)CC#N)C(=O)N[C@@H](CCC(N)=O)C(=O)N[C@@H](CCCCN)C(=O)N[C@@H](Cc4c[nH]c5ccccc45)C(=O)N[C@@H](CCCC)C(=O)N[C@@H](Cc4c[nH]c5ccccc45)C(=O)N[C@@H]([C@@H](C)O)C(=O)N2)NC(=O)[C@H](CSSC[C@@H](C(=O)N[C@@H](CCCNC(=N)N)C(=O)N[C@@H](CCCCN)C(=O)N[C@@H](CCC(=O)O)C(=O)N[C@H](C(N)=O)[C@@H](C)CC)NC(=O)[C@H](Cc2c[nH]c4ccccc24)NC(=O)[C@H](CC(C)C)NC(=O)[C@H](CCCCN)NC3=O)NC(=O)[C@H](C)NC(=O)[C@H](CCCNC(=N)N)NC(=O)[C@H](CCCCN)NC1=O [CyA-[Nle6; Pra11; Glu28]JzTx-V(1-29)]
IC50 (rNav1.7; PatchXpress, tonic block, rat Nav1.7, read-out: PX rNav1.7 Tonic IC50): 2.24 nM | rNav1.7/hNav1.7 (rNav1.7): 11.58 | IC50 (mNav1.7): 4.04 nM | mNav1.7/hNav1.7 (mNav1.7): 20.87

CCCC[C@@H]1NC(=O)[C@H](Cc2c[nH]c3ccccc23)NC(=O)[C@H](CCCCN)NC(=O)[C@H](CCC(N)=O)NC(=O)[C@@H](NC(=O)[C@H](Cc2ccc(O)cc2)NC(=O)[C@@H](N)CC#N)CSSC[C@@H]2NC(=O)[C@@H]3CSSC[C@@H](C(=O)N[C@@H](CCCNC(=N)N)C(=O)N[C@@H](CCCCN)C(=O)N[C@H](C(=O)N[C@H](C(N)=O)[C@@H](C)CC)[C@@H](C)CC)NC(=O)[C@H](Cc4c[nH]c5ccccc45)NC(=O)[C@H](CC(C)C)NC(=O)[C@H](CCCCN)NC(=O)[C@H](CSSC[C@H](NC(=O)[C@H]([C@@H](C)O)NC(=O)[C@H](Cc4c[nH]c5ccccc45)NC1=O)C(=O)N[C@@H](CC(=O)O)C(=O)N[C@@H](CO)C(=O)N[C@@H](CCCCN)C(=O)N[C@@H](CCCNC(=N)N)C(=O)N[C@@H](C)C(=O)N3)NC(=O)[C@H](CCCNC(=N)N)NC(=O)[C@H](CC(C)C)NC(=O)CNC(=O)[C@H](CCC(=O)O)NC2=O [CyA-[Nle6]JzTx-V(1-29)]
IC50 (hNav1.7 [1]; [7]): 0.31 nM | IC50 (mNav1.7): 0.957 nM | mNav1.7/hNav1.7 (mNav1.7): 3.09

CCCC[C@@H]1NC(=O)[C@H](Cc2c[nH]c3ccccc23)NC(=O)[C@H](CCCCN)NC(=O)[C@H](CCC(N)=O)NC(=O)[C@@H](NC(=O)[C@H](Cc2ccc(O)cc2)NC(=O)[C@H](N)CC(C)C)CSSC[C@@H]2NC(=O)[C@@H]3CSSC[C@@H](C(=O)N[C@@H](CCCNC(=N)N)C(=O)N[C@@H](CCCCN)C(=O)N[C@H](C(=O)N[C@H](C(N)=O)[C@@H](C)CC)[C@@H](C)CC)NC(=O)[C@H](Cc4c[nH]c5ccccc45)NC(=O)[C@H](CC(C)C)NC(=O)[C@H](CCCCN)NC(=O)[C@H](CSSC[C@H](NC(=O)[C@H]([C@@H](C)O)NC(=O)[C@H](Cc4c[nH]c5ccccc45)NC1=O)C(=O)N[C@@H](CC(=O)O)C(=O)N[C@@H](CO)C(=O)N[C@@H](CCCCN)C(=O)N[C@@H](CCCNC(=N)N)C(=O)N[C@@H](C)C(=O)N3)NC(=O)[C@H](CCCNC(=N)N)NC(=O)[C@H](CC(C)C)NC(=O)CNC(=O)[C@H](CCC(=O)O)NC2=O [D-Leu-[Nle6]JzTx-V(1-29)]
IC50 (hNav1.7 [1]; [7]): 0.15 nM | IC50 (mNav1.7): 12.6 nM | mNav1.7/hNav1.7 (mNav1.7): 84.00

CCCC[C@@H]1NC(=O)[C@H](Cc2c[nH]c3ccccc23)NC(=O)[C@H](CCCCN)NC(=O)[C@H](CCC(N)=O)NC(=O)[C@@H](NC(=O)[C@H](Cc2ccc(O)cc2)NC(=O)[C@@H](N)Cc2c[nH]c3ccccc23)CSSC[C@@H]2NC(=O)[C@@H]3CSSC[C@@H](C(=O)N[C@@H](CCCNC(=N)N)C(=O)N[C@@H](CCCCN)C(=O)N[C@H](C(=O)N[C@H](C(N)=O)[C@@H](C)CC)[C@@H](C)CC)NC(=O)[C@H](Cc4c[nH]c5ccccc45)NC(=O)[C@H](CC(C)C)NC(=O)[C@H](CCCCN)NC(=O)[C@H](CSSC[C@H](NC(=O)[C@H]([C@@H](C)O)NC(=O)[C@H](Cc4c[nH]c5ccccc45)NC1=O)C(=O)N[C@@H](CC(=O)O)C(=O)N[C@@H](CO)C(=O)N[C@@H](CCCCN)C(=O)N[C@@H](CCCNC(=N)N)C(=O)N[C@@H](C)C(=O)N3)NC(=O)[C@H](CCCNC(=N)N)NC(=O)[C@H](CC(C)C)NC(=O)CNC(=O)[C@H](CCC(=O)O)NC2=O [Trp-[Nle6]JzTx-V(1-29)]
IC50 (hNav1.7 [1]; [7]): 0.33 nM | IC50 (mNav1.7): 1.34 nM | mNav1.7/hNav1.7 (mNav1.7): 4.07

CCCC[C@@H]1NC(=O)[C@H](Cc2c[nH]c3ccccc23)NC(=O)[C@H](CCCCN)NC(=O)[C@H](CCC(N)=O)NC(=O)[C@@H](NC(=O)[C@H](Cc2ccc(O)cc2)NC(=O)[C@@H](N)Cc2cn(CCCOCCOCCOCCOCCOCCOCCOCCOCCOCCOCCN)nn2)CSSC[C@@H]2NC(=O)[C@@H]3CSSC[C@@H](C(=O)N[C@@H](CCCNC(=N)N)C(=O)N[C@@H](CCCCN)C(=O)N[C@H](C(=O)N[C@H](C(N)=O)[C@@H](C)CC)[C@@H](C)CC)NC(=O)[C@H](Cc4c[nH]c5ccccc45)NC(=O)[C@H](CC(C)C)NC(=O)[C@H](CCCCN)NC(=O)[C@H](CSSC[C@H](NC(=O)[C@H]([C@@H](C)O)NC(=O)[C@H](Cc4c[nH]c5ccccc45)NC1=O)C(=O)N[C@@H](CC(=O)O)C(=O)N[C@@H](CO)C(=O)N[C@@H](CCCCN)C(=O)N[C@@H](CCCNC(=N)N)C(=O)N[C@@H](C)C(=O)N3)NC(=O)[C@H](CCCNC(=N)N)NC(=O)[C@H](CC(C)C)NC(=O)CNC(=O)[C@H](CCC(=O)O)NC2=O [compound 247]
IC50 (hNav1.7 [2]): 0.07 µM | IC50 (hNav1.5 [3]): 4.3 µM | IC50 (hNav1.4 [4]): 0.15 µM | Nav1.4/Nav1.7 (hNav1.4 [4]): 2 | IC50 (hNav1.3): 0.13 µM | IC50 (hNav1.7 [1]): 6 nM | Nav1.5/Nav1.7 (hNav1.5 [5]): 629 | IC50 (hNav1.5 [5]): 3770 nM | Nav1.4/Nav1.7 (hNav1.4 [6]): 1 | IC50 (hNav1.4 [6]): 8 nM

CCCC[C@@H]1NC(=O)[C@H](Cc2c[nH]c3ccccc23)NC(=O)[C@H](CCCCN)NC(=O)[C@H](CCC(N)=O)NC(=O)[C@@H](NC(=O)[C@@H](N)Cc2ccc(O)cc2)CSSC[C@@H]2NC(=O)[C@@H]3CSSC[C@@H](C(=O)N[C@@H](CCCNC(=N)N)C(=O)N[C@@H](CCCCN)C(=O)N[C@H](C(=O)N[C@H](C(N)=O)[C@@H](C)CC)[C@@H](C)CC)NC(=O)[C@H](Cc4c[nH]c5ccccc45)NC(=O)[C@H](CC(C)C)NC(=O)[C@H](CCCCN)NC(=O)[C@H](CSSC[C@H](NC(=O)[C@H]([C@@H](C)O)NC(=O)[C@H](Cc4c[nH]c5ccccc45)NC1=O)C(=O)N[C@@H](CC(=O)O)C(=O)N[C@@H](Cc1cn(CCCOCCOCCOCCOCCOCCOCCOCCOCCOCCOCCN)nn1)C(=O)N[C@@H](CCCCN)C(=O)N[C@@H](CCCNC(=N)N)C(=O)N[C@@H](C)C(=O)N3)NC(=O)[C@H](CCCNC(=N)N)NC(=O)[C@H](CC(C)C)NC(=O)CNC(=O)[C@H](CCC(=O)O)NC2=O [compound 256]
IC50 (hNav1.5 [3]): > 5 µM | IC50 (hNav1.4 [4]): 0.4 µM and 0.5 µM | Nav1.4/Nav1.7 (hNav1.4 [4]): 4 | IC50 (hNav1.3): 0.2 µM and 0.4 µM | IC50 (hNav1.7 [1]): 9.3 nM | Nav1.5/Nav1.7 (hNav1.5 [5]): 200 | IC50 (hNav1.5 [5]): 1860 nM | Nav1.4/Nav1.7 (hNav1.4 [6]): 3 | IC50 (hNav1.4 [6]): 27 nM
